Laboratory results published in ChEMBL document CHEMBL1148579, “Influence of various central moieties on the hypolipidemic properties of long hydrocarbon chain diols and diacids” (J Med Chem, 2006).

Key:
Rattus norvegicus [1] = test: Activity against high density lipoprotein cholesterol level in obese female Zucker rat serum after 1 week at 100 mg/kg (percent change from pre-treatment); assay type: functional
Hepatocyte = test: Inhibition of lipid synthesis in primary rat hepatocytes by incorporation radiolabeled acetate into cellular lipids; assay type: functional, cell-based, Sprague-Dawley; details: Rattus norvegicus, Sprague-Dawley, Hepatocyte; read-out: IC50
Rattus norvegicus [2] = test: Activity against non high density lipoprotein cholesterol level in obese female Zucker rat serum after 1 week at 100 mg/kg (percent change from pre-treatment); assay type: functional
Rattus norvegicus [3] = test: Activity against non high density lipoprotein cholesterol level in obese female Zucker rat serum after 2 weeks at 100 mg/kg (percent change from pre-treatment); assay type: functional
Rattus norvegicus [4] = test: Activity against high density lipoprotein cholesterol level in obese female Zucker rat serum after 2 weeks at 100 mg/kg (percent change from pre-treatment); assay type: functional
Rattus norvegicus [5] = test: Activity against triglyceride level in obese female Zucker rat serum after 1 week at 100 mg/kg (percent change from pre-treatment); assay type: functional
Rattus norvegicus [6] = test: Activity against triglyceride level in obese female Zucker rat serum after 2 weeks at 100 mg/kg (percent change from pre-treatment); assay type: functional
Rattus norvegicus [7] = test: AUC (infinity) of the metabolite 2,2,12,12-tetramethyl-7-oxotridecanedioic acid in male Wistar rat administered with the parent compound at 100 mg/kg, po; assay type: ADME, organism-based, Plasma; set-up: time infinity, dose 100 mg/kg, route oral; details: in vivo
Rattus norvegicus [8] = test: Volume of distribution of the metabolite 2,2,12,12-tetramethyl-7-oxotridecanedioic acid in male Wistar rat administered with the parent compound at 100 mg/kg, po; assay type: ADME, organism-based; set-up: dose 100 mg/kg, route oral; details: in vivo
Rattus norvegicus [9] = test: Clearance of the metabolite 2,2,12,12-tetramethyl-7-oxotridecanedioic acid in male Wistar rat administered with the parent compound at 100 mg/kg, po; assay type: ADME, organism-based; set-up: dose 100 mg/kg, route oral; details: in vivo
Rattus norvegicus [10] = test: Half life of the metabolite 7-hydroxy-2,2,12,12-tetramethyltridecanedioic acid in male Wistar rat administered with the parent compound at 100 mg/kg, po; assay type: ADME, organism-based; set-up: dose 100 mg/kg, route oral; details: in vivo
Rattus norvegicus [11] = test: Cmax of the metabolite 7-hydroxy-2,2,12,12-tetramethyltridecanedioic acid in male Wistar rat administered with the parent compound at 100 mg/kg, po; assay type: ADME, organism-based; set-up: dose 100 mg/kg, route oral; details: in vivo
Rattus norvegicus [12] = test: Tmax of the metabolite 7-hydroxy-2,2,12,12-tetramethyltridecanedioic acid in male Wistar rat administered with the parent compound at 100 mg/kg, po; assay type: ADME, organism-based; set-up: dose 100 mg/kg, route oral; details: in vivo
Rattus norvegicus [13] = test: AUC of the metabolite 7-hydroxy-2,2,12,12-tetramethyltridecanedioic acid in male Wistar rat administered with the parent compound at 100 mg/kg, po; assay type: ADME, organism-based, Plasma; set-up: dose 100 mg/kg, route oral; details: in vivo
Rattus norvegicus [14] = test: AUC (infinity) of the metabolite 7-hydroxy-2,2,12,12-tetramethyltridecanedioic acid in male Wistar rat administered with the parent compound at 100 mg/kg, po; assay type: ADME, organism-based, Plasma; set-up: time infinity, dose 100 mg/kg, route oral; details: in vivo
Rattus norvegicus [15] = test: Volume of distribution of the metabolite 7,13-dihydroxy-2,2,12,12-tetramethyltridecanoic acid in male Wistar rat administered with the parent compound at 100 mg/kg, po; assay type: ADME, organism-based; set-up: dose 100 mg/kg, route oral; details: in vivo
Rattus norvegicus [16] = test: Clearance of the metabolite 7,13-dihydroxy-2,2,12,12-tetramethyltridecanoic acid in male Wistar rat administered with the parent compound at 100 mg/kg, po; assay type: ADME, organism-based; set-up: dose 100 mg/kg, route oral; details: in vivo
Rattus norvegicus [17] = test: Half life of the metabolite 2,2,12,12-tetramethyl-7-oxotridecanedioic acid in male Wistar rat administered with the parent compound at 100 mg/kg, po; assay type: ADME, organism-based; set-up: dose 100 mg/kg, route oral; details: in vivo
Rattus norvegicus [18] = test: Tolerability of compound upto 2000 mg/kg; assay type: organism-based; set-up: dose 2000 mg/kg; details: in vivo
Rattus norvegicus [19] = test: Clearance of the metabolite 13-hydroxy-2,2,12,12-tetramethyl-7-oxotridecanoic acid in male Wistar rat administered with the parent compound at 100 mg/kg, po; assay type: ADME, organism-based; set-up: dose 100 mg/kg, route oral; details: in vivo
Rattus norvegicus [20] = test: Half life of the metabolite 7,13-dihydroxy-2,2,12,12-tetramethyltridecanoic acid in male Wistar rat administered with the parent compound at 100 mg/kg, po; assay type: ADME, organism-based; set-up: dose 100 mg/kg, route oral; details: in vivo
Rattus norvegicus [21] = test: Cmax of the metabolite 7,13-dihydroxy-2,2,12,12-tetramethyltridecanoic acid in male Wistar rat administered with the parent compound at 100 mg/kg, po; assay type: ADME, organism-based; set-up: dose 100 mg/kg, route oral; details: in vivo
Rattus norvegicus [22] = test: Tmax of the metabolite 7,13-dihydroxy-2,2,12,12-tetramethyltridecanoic acid in male Wistar rat administered with the parent compound at 100 mg/kg, po; assay type: ADME, organism-based; set-up: dose 100 mg/kg, route oral; details: in vivo
Rattus norvegicus [23] = test: AUC of the metabolite 7,13-dihydroxy-2,2,12,12-tetramethyltridecanoic acid in male Wistar rat administered with the parent compound at 100 mg/kg, po; assay type: ADME, organism-based, Plasma; set-up: dose 100 mg/kg, route oral; details: in vivo
Rattus norvegicus [24] = test: AUC (infinity) of the metabolite 7,13-dihydroxy-2,2,12,12-tetramethyltridecanoic acid in male Wistar rat administered with the parent compound at 100 mg/kg, po; assay type: ADME, organism-based, Plasma; set-up: time infinity, dose 100 mg/kg, route oral; details: in vivo
Rattus norvegicus [25] = test: Cmax of the metabolite 2,2,12,12-tetramethyl-7-oxotridecanedioic acid in male Wistar rat administered with the parent compound at 100 mg/kg, po; assay type: ADME, organism-based; set-up: dose 100 mg/kg, route oral; details: in vivo
Rattus norvegicus [26] = test: Tmax of the metabolite 2,2,12,12-tetramethyl-7-oxotridecanedioic acid in male Wistar rat administered with the parent compound at 100 mg/kg, po; assay type: ADME, organism-based; set-up: dose 100 mg/kg, route oral; details: in vivo
Rattus norvegicus [27] = test: AUC of the metabolite 2,2,12,12-tetramethyl-7-oxotridecanedioic acid in male Wistar rat administered with the parent compound at 100 mg/kg, po; assay type: ADME, organism-based, Plasma; set-up: dose 100 mg/kg, route oral; details: in vivo
Rattus norvegicus [28] = test: AUC of the metabolite 13-hydroxy-2,2,12,12-tetramethyl-7-oxotridecanoic acid in male Wistar rat administered with the parent compound at 100 mg/kg, po; assay type: ADME, organism-based, Plasma; set-up: dose 100 mg/kg, route oral; details: in vivo
Rattus norvegicus [29] = test: AUC (infinity) of the metabolite 13-hydroxy-2,2,12,12-tetramethyl-7-oxotridecanoic acid in male Wistar rat administered with the parent compound at 100 mg/kg, po; assay type: ADME, organism-based, Plasma; set-up: time infinity, dose 100 mg/kg, route oral; details: in vivo
Rattus norvegicus [30] = test: Volume of distribution of the metabolite 13-hydroxy-2,2,12,12-tetramethyl-7-oxotridecanoic acid in male Wistar rat administered with the parent compound at 100 mg/kg, po; assay type: ADME, organism-based; set-up: dose 100 mg/kg, route oral; details: in vivo
Rattus norvegicus [31] = test: Volume of distribution of the metabolite 7-hydroxy-2,2,12,12-tetramethyltridecanedioic acid in male Wistar rat administered with the parent compound at 100 mg/kg, po; assay type: ADME, organism-based; set-up: dose 100 mg/kg, route oral; details: in vivo
Rattus norvegicus [32] = test: Clearance of the metabolite 7-hydroxy-2,2,12,12-tetramethyltridecanedioic acid in male Wistar rat administered with the parent compound at 100 mg/kg, po; assay type: ADME, organism-based; set-up: dose 100 mg/kg, route oral; details: in vivo
Rattus norvegicus [33] = test: Half life of the metabolite 13-hydroxy-2,2,12,12-tetramethyl-7-oxotridecanoic acid in male Wistar rat administered with the parent compound at 100 mg/kg, po; assay type: ADME, organism-based; set-up: dose 100 mg/kg, route oral; details: in vivo
Rattus norvegicus [34] = test: Cmax of the metabolite 13-hydroxy-2,2,12,12-tetramethyl-7-oxotridecanoic acid in male Wistar rat administered with the parent compound at 100 mg/kg, po; assay type: ADME, organism-based; set-up: dose 100 mg/kg, route oral; details: in vivo
Rattus norvegicus [35] = test: Tmax of the metabolite 13-hydroxy-2,2,12,12-tetramethyl-7-oxotridecanoic acid in male Wistar rat administered with the parent compound at 100 mg/kg, po; assay type: ADME, organism-based; set-up: dose 100 mg/kg, route oral; details: in vivo
Rattus norvegicus [36] = test: Tolerability of compound upto 5000 mg/kg; assay type: ADME, organism-based; set-up: dose 5000 mg/kg; details: in vivo
[37] = Half life in male Wistar rat at 100 mg/kg, po; assay type: ADME, organism-based; set-up: dose 100 mg/kg, route oral; details: in vivo
[38] = Cmax in male Wistar rat at 100 mg/kg, po; assay type: ADME, organism-based; set-up: dose 100 mg/kg, route oral; details: in vivo
[39] = Tmax in male Wistar rat at 100 mg/kg, po; assay type: ADME, organism-based; set-up: dose 100 mg/kg, route oral; details: in vivo
[40] = AUC in male Wistar rat at 100 mg/kg, po; assay type: ADME, organism-based; set-up: dose 100 mg/kg, route oral; details: plasma
[41] = AUC (infinity) in male Wistar rat at 100 mg/kg, po; assay type: ADME, organism-based; set-up: time infinity, dose 100 mg/kg, route oral; details: plasma
Rattus norvegicus [42] = test: Volume of distribution in male Wistar rat at 100 mg/kg, po; assay type: ADME, organism-based; set-up: dose 100 mg/kg, route oral; details: in vivo
[43] = Clearance in male Wistar rat at 100 mg/kg, po; assay type: ADME, organism-based; set-up: dose 100 mg/kg, route oral; details: in vivo

CC(C)(CO)CCCCC(=O)CCCCC(C)(C)CO
Activity (Rattus norvegicus [1]): 111% | IC50 (Hepatocyte): 1.5 µM | Activity (Rattus norvegicus [2]): -23% | Activity (Rattus norvegicus [3]): -10% | Activity (Rattus norvegicus [4]): 126% | Activity (Rattus norvegicus [5]): -54% | Activity (Rattus norvegicus [6]): -29% | AUC (Rattus norvegicus [7]): 344.9 µg·h/mL | Vdss (Rattus norvegicus [8]): 5.6319 L/kg | CL (Rattus norvegicus [9]): 86.8 mL/h | T1/2 (Rattus norvegicus [10]): 16.9 h | Cmax (Rattus norvegicus [11]): 40600 ng/mL | Tmax (Rattus norvegicus [12]): 6 h | AUC (Rattus norvegicus [13]): 703.3 µg·h/mL | AUC (Rattus norvegicus [14]): 1176.1 µg·h/mL | Vdss (Rattus norvegicus [15]): 1.5332 L/kg | CL (Rattus norvegicus [16]): 69 mL/h | T1/2 (Rattus norvegicus [17]): 13.5 h | Activity (Rattus norvegicus [18]): Active | CL (Rattus norvegicus [19]): 747.9 mL/h | T1/2 (Rattus norvegicus [20]): 3.1 h | Cmax (Rattus norvegicus [21]): 21400 ng/mL | Tmax (Rattus norvegicus [22]): 6 h | AUC (Rattus norvegicus [23]): 289.9 µg·h/mL | AUC (Rattus norvegicus [24]): 291.6 µg·h/mL | Cmax (Rattus norvegicus [25]): 14900 ng/mL | Tmax (Rattus norvegicus [26]): 6 h | AUC (Rattus norvegicus [27]): 230.3 µg·h/mL | AUC (Rattus norvegicus [28]): 26.7 µg·h/mL | AUC (Rattus norvegicus [29]): 26.8 µg·h/mL | Vdss (Rattus norvegicus [30]): 13.6709 L/kg | Vdss (Rattus norvegicus [31]): 2.0721 L/kg | CL (Rattus norvegicus [32]): 28.4 mL/h | T1/2 (Rattus norvegicus [33]): 2.5 h | Cmax (Rattus norvegicus [34]): 2000 ng/mL | Tmax (Rattus norvegicus [35]): 0.5 h

CC(C)(CO)CCCCSCCCCC(C)(C)CO
Activity (Rattus norvegicus [1]): 141% | IC50 (Hepatocyte): 18 µM | Activity (Rattus norvegicus [2]): -11% | Activity (Rattus norvegicus [3]): 9% | Activity (Rattus norvegicus [4]): 153% | Activity (Rattus norvegicus [5]): -37% | Activity (Rattus norvegicus [6]): -56% | Activity (Rattus norvegicus [36]): Active

CC(C)(CCCCC(O)CCCCC(C)(C)C(=O)O)C(=O)O
Activity (Rattus norvegicus [1]): 57% | IC50 (Hepatocyte): 4.7 µM | Activity (Rattus norvegicus [2]): -6% | Activity (Rattus norvegicus [3]): -41% | Activity (Rattus norvegicus [4]): 50% | Activity (Rattus norvegicus [5]): -32% | Activity (Rattus norvegicus [6]): -59% | half-life [37]: 16.9 h | Cmax [38]: 40600 ng/mL | Tmax [39]: 6 h | AUC [40]: 703 µg·h/mL | AUC(0-inf) [41]: 1180 µg·h/mL | Vdss (Rattus norvegicus [42]): 2.0721 L/kg | CL/F [43]: 0.473 mL/min
